Test results published in patent US12691100B2, “NMT inhibitor treatment of a senescence-associated disease or disorder of the liver” (Imperial College Innovations Limited, priority 2020, dated 2026).

Assays:
[1] = literature: Wilson, O'Connor et al. 2010; cited from earlier work
IMR90 ER:RAS cells = experiment: Senolytic activity under IRE1 inhibition with KIRA6; assay type: cell-based, human; conditions: 600 nM KIRA6 from day 4 post-induction; Compound 1 or 2 from day 7; read at day 12; FIGS. 15A-B
Description: High-throughput microscopy survival assay—To assess senolytic effect of drugs, cells were cultured for 7 days, culture media was changed to DM0.5 media and drugs in DMSO were added (<5% v/v final concentration), drugs were replenished after 3 days if assay length was longer than 72 h. Wells were fixed in 4% PFA for 1 hour at day 10 to 14, washed 3 times with PBS and then stained with 1 μg/mL DAPI (w/v, PBS) for 10 minutes. Wells were then washed 3 times with PBS. Optionally plates could be stored at 4° C. for up to 2 weeks and DAPI stained. Image acquisition of DAPI stained cells was performed on an automated InCell Analyser 2000 (GE Healthcare®) and high-content analysis on the InCell Investigator 2.7.3 software used to quantify number of DAPI positive cells per well. A top-hat method was used to segment cell-nuclei based on DAPI stained area and a minimum nuclear area threshold of 80 μm used to exclude debris. For cancer cell lines, nuclear area threshold was reduced to 40 μm. Survival was measured as cell counts relative to DMSO treated quiescent or senescent cells.
To investigate whether the activation of UPR caused by NMT inhibition in senescent cells was responsible for the senolytic potential of NMT inhibitors, cells were treated with KIRA6, a selective inhibitor of IRE1, a kinase necessary for the UPR. IMR90 ER:RAS cells undergoing senescence (after induction with 4OHT), were treated with 600 nM KIRA6 (an IRE1 inhibitor) on day 4 post-induction. On day 7 post-induction, cells were treated with Compound 1 or 2 and 600 nM KIRA6. […] Both NMT inhibitor and Kira6 were replenished 3 days after addition of NMT inhibitor (at day 10 post-induction). Data is shown as mean±SD, n represents independent biological experiments.

MCF7 cancer cells = experiment: Senescence induction by chemotherapeutic drugs (BrdU, SA-β-Galactosidase, p21CIP1); assay type: cell-based; conditions: 7 days after treatment, doxorubicin 200 nM, etoposide 2 μM, cisplatin 10 μM; for BrdU incorporation (cell division): FIG. 8A; for SA-β-Galactosidase activity / p21^CIP1 expression: FIGS. 8B-C
Description: (§1) IMR90 cells were used to generate inducible ER:RAS (hereinafter iRAS) cells to model Oncogene induced senescence (OIS), through retroviral infection of pLNC-ER:RAS-neo into IMR90 cells followed by selection with Neomycin. IMR90 cells containing the pLNC-ER:RAS plasmid backbone pLXSN were infected in parallel to assess leakiness in the pLNC-ER:RAS system. Treatment with 100 nM 4OHT (Sigma, in DMSO) was used to induce IMR90 ER:RAS cells to undergo oncogene induced senescence (OIS). Therapy induced senescence (TIS) was induced in IMR90 cells by treatment with 33 μM (50 ug/ml) bleomycin sulphate (Generon, HY-17565) for 24 hours, 20 μM palbociclib (Selleckchem, S1116) for 7 days or 100 nM doxorubicin (Cayman chemical, 15007) for 7 days. Senescence was induced in SK-HEP-1 cells by treatment with 2 μM etoposide (Sigma-Aldrich, E1383) for 7 days (FIGS. 4A-C). HCT-116 senescence was induced by 250 nM treatment with doxorubicin (Cayman chemical, 15007) for 48 hours followed by 5 days culture in media without chemotherapy (FIG. 5), or by treatment with 100 nM doxorubicin, 2 μM etoposide or 100 μM cisplatin for 3 days followed by 4 days culture in media without chemotherapy (FIGS. 6A-7C). Senescence was induced in MCF7 by 200 nM treatment with doxorubicin for 7 days, 2 μM etoposide for 7 days or 10 μM cisplatin for 7 days (FIGS. 8A-9C).
(§2) BrdU Incorporation—Cell proliferation was assessed through incorporation of nucleotide analogue 5-Bromo-2′-deoxyuridine (BrdU) into cells. 2×10^3 or 8×10^3 IMR90 cells were seeded into 96-well plates in duplicate for DMSO/palbociclib treated and bleomycin/doxorubicin treated cells respectively. 10 μM BrdU was added to cells 18 h before desired time point and wells were then washed in PBS and fixed using 4% paraformaldehyde (w/v, PBS) for 45 minutes to 1 hour before removal and washing 3 times with PBS. BrdU incorporation was assessed via immunofluorescence and high-content analysis (see section ‘Immunofluorescence & High throughput microscopy’).
(§3) Immunofluorescence staining was carried out by first fixing wells of 96 well plate at desired timepoint for 1 hour using 4% PFA (w/v, in PBS) followed by washing 3 times with PBS. Wells were then permeabilized using 0.2% Triton® X-100 (v/v, PBS) for 10 min or with 0.5% Triton® X-100 (v/v, PBS) for COPI staining. Wells were then washed twice with PBS to halt permeabilization and then non-specific antibody binding blocked by incubation with a blocking solution for 1 hour at RT. Blocking solution contained 1% BSA (w/v, PBS) supplemented with 0.4% Fish Skin Gelatin (v/v, PBS). Primary antibodies were diluted in respective blocking solution (see ‘Antibodies’ for dilutions), blocking solution removed from well and incubated with primary antibody solution for 1 hour at RT. For BrdU staining primary antibody solution is supplemented with 0.5 U/ul DNase (Sigma) and 1 mM MgCl2 and incubation times reduced to 30 minutes. Following incubation, primary antibody was then removed by washing 3 times with PBS. Secondary antibodies conjugated to Alexa-594 or Alexa-488 fluorophores were then diluted in blocking solution added to wells to be incubated in dark for 1 hour. Secondary antibody was then removed by washing 3 times with PBS and nuclei counterstaining with 1 μg/mL DAPI (w/v, PBS) for 10 minutes. Wells were then washed with PBS three times.
(§4) MCF7 cancer cells were treated with doxorubicin, etoposide or cisplatin (to induce senescence) or DMSO (as a control). 7 days after treatment, analysed BrdU incorporation (to assess cell division), SA-β-Galactosidase activity and p21^CIP1 expression (as markers of senescence) were analysed. […] Media and compounds were replenished after 72 h of treatment and cultured for 48 h more before fixation and measurement of survival via high-throughput microscopy. DMSO/Doxorubicin/Etoposide (n=3), Cisplatin (n=2).

HCT116 = experiment: as above; assay type: cell-based, human; conditions: 7 days after treatment, doxorubicin 100 nM, etoposide 2 μM, cisplatin 100 μM; for BrdU incorporation (cell division): FIG. 6A; for SA-β-Galactosidase activity / p21^CIP1 expression: FIGS. 6B-C
Description: as §1, §2, §3
as §4, with “In a second experiment, HCT116” for “MCF7 cancer cells”, “treatment,” for “treatment, analysed”, “(n=4),” for “(n=3),”, “(n=1).” for “(n=2).”

## CC1(C)CCC(c2ccc(Cl)cc2)=C(CN2CCN(c3ccc(C(=O)NS(=O)(=O)c4ccc(N[C@H](CCN5CCOCC5)CSc5ccccc5)c(S(=O)(=O)C(F)(F)F)c4)cc3)CC2)C1 [ABT-263]
[1]
  Side effects: significant neutropenia and thrombocytopenia

## CC(C)(C)c1nc(-c2ccc(NC(=O)Nc3cccc(C(F)(F)F)c3)c3ccccc23)c2c(N)nccn12 [KIRA6, reference compound]
IMR90 ER:RAS cells
  Effect of KIRA6 on the senolytic activity of NMT inhibitors: prevented the senolytic activity of NMT inhibitors

## N.N.[Cl][Pt][Cl] [cisplatin]
MCF7 cancer cells
  BrdU incorporation (cell division): stopped proliferating
  SA-β-Galactosidase activity: upregulated
  p21^CIP1 expression: upregulated
HCT116
  BrdU incorporation (cell division): stopped proliferating
  SA-β-Galactosidase activity: upregulated
  p21^CIP1 expression: upregulated

## COc1cccc2c1C(=O)c1c(O)c3c(c(O)c1C2=O)C[C@@](O)(C(=O)CO)C[C@@H]3O[C@H]1C[C@H](N)[C@H](O)[C@H](C)O1 [doxorubicin]
MCF7 cancer cells
  BrdU incorporation (cell division): stopped proliferating
  SA-β-Galactosidase activity: upregulated
  p21^CIP1 expression: upregulated
HCT116
  BrdU incorporation (cell division): stopped proliferating
  SA-β-Galactosidase activity: upregulated
  p21^CIP1 expression: upregulated

## COc1cc([C@@H]2c3cc4c(cc3[C@@H](O[C@@H]3O[C@@H]5CO[C@@H](C)O[C@H]5[C@H](O)[C@H]3O)[C@H]3COC(=O)[C@H]23)OCO4)cc(OC)c1O [etoposide]
MCF7 cancer cells
  BrdU incorporation (cell division): stopped proliferating
  SA-β-Galactosidase activity: upregulated
  p21^CIP1 expression: upregulated
HCT116
  BrdU incorporation (cell division): stopped proliferating
  SA-β-Galactosidase activity: upregulated
  p21^CIP1 expression: upregulated
